Measurements: BindingDB's records for patent US20240124479 (Shanghai Meiyue Biotech Development Co., 2024)

What follows are compounds tested against T1, Pantetheinase (Homo sapiens, UniProt O95497) (assay: Vanin-1 Recombinant Enzyme Activity Inhibition Assay).
T1 sequence (O95497 whole entry): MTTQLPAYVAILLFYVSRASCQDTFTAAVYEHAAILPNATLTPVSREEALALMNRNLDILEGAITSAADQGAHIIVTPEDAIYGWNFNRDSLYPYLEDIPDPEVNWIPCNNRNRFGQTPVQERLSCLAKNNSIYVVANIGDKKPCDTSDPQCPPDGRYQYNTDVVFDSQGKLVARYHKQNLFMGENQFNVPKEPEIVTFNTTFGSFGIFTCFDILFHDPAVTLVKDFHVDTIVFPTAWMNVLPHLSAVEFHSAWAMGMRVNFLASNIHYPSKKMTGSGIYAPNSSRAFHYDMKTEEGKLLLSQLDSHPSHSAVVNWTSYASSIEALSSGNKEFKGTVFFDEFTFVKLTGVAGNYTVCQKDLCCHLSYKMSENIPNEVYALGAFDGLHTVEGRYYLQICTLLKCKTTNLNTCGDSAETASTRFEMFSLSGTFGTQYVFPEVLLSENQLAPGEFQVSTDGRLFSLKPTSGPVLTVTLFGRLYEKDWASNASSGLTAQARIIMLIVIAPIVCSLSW
Protocol: A certain mass of the compound was weighed precisely, and prepared with DMSO and reaction buffer (50 mM Tris base, 50 mM KCl, 1.6 mM cysteamine, 0.005% Brij 35, pH 8.0, prepared when using) to a maximum concentration of 10000 nM, then diluted in a 4-fold gradient, and prepared into 10 compound working solutions with different concentrations;for the activity inhibition reaction of recombinant human Vanin-1 (Biorab, JN0618), 2.5 μL of compound working solution and 5 μL of recombinant human Vanin-1 protein were first mixed.

Row | IC50 | Structure (SMILES)
1 | 65 nM | O=C(c1cnc(NCc2ccccc2)nc1)N1CCC2(CCOCC2)C1 [US20240124479, Compound 5]
2 | 6 nM | CC(Nc1ncc(C(=O)N2CCC3(CCOCC3)C2)cn1)c1ccccc1 (stereo not given) [US20240124479, Compound 6]
3 | 17 nM | O=C(c1cnc(NCc2ccc(F)cc2F)nc1)N1CCC2(CCOCC2)C1 [US20240124479, Compound 12]
4 | 0.4 nM | CC(Nc1ncc(C(=O)N2CCC3(CCOCC3)C2)cn1)c1ccc(OC(F)F)cc1Cl (stereo not given) [US20240124479, Compound 27]
5 | 0.8 nM | C[C@@H](Nc1ncc(C(=O)N2CCC3(CCOCC3)C2)cn1)c1ccc(C(F)(F)F)cc1Cl [US20240124479, Compound 28]
6 | 0.4 nM | C[C@H](Nc1ncc(C(=O)N2CCC3(CCOCC3)C2)cn1)c1ccc(C(F)(F)F)cc1Cl [US20240124479, Compound 29]
7 | 0.1 nM | CC(=O)N(C)[C@H]1CCN(C(=O)c2cnc(NC(C)c3c(F)cccc3C(F)(F)F)nc2)C1 (stereo not given in full) [US20240124479, Compound 38]
8 | 1.8 nM | CC(=O)N(C)[C@H]1CCN(C(=O)c2cnc(NC(C)c3ccc(F)cc3Cl)nc2)C1 (stereo not given in full) [US20240124479, Compound 39]

Row | Structure (SMILES) | IC50
9 | CC(=O)N(C)[C@H]1CCN(C(=O)c2cnc(N[C@H](C)c3ccc(C(F)(F)F)cc3F)nc2)C1 [US20240124479, Compound 41-P2] | 0.3 nM
10 | CC(=O)N(C)[C@H]1CCN(C(=O)c2cnc(NC(C)c3ccc(C(F)(F)F)cc3F)nc2)C1 (stereo not given in full) [US20240124479, Compound 41] | 0.2 nM
